The values below come from patent US11780893B2, “Kv1.3 blockers” (Zealand Pharma A/S, priority 2019, dated 2023).

The target of test [1] is T1, Kv1.3 (Homo sapiens, UniProt P22001).
T1 construct: expressed in transfected cells; host or cells: Chinese Hamster Ovary (CHO)
Nature of the test: cell-based. The following applies: CHO cells, whole-cell patch clamp; read-out: Potency IC50 (nM) Kv1.3.

Test [2] has as its target T2, human Kv1.3 voltage-gated K+ channel (Homo sapiens, UniProt P22001).
T2 construct: host or cells: CHO-DUKX
The test can be described thus: cell-based. The conditions noted are these: inhibition of thallium flux, CHO-DUKX cells with human Kv1.3; read-out: IC50.

Test [3] has as its target Rat whole blood (Rattus norvegicus, UniProt P15384).

Bridge positions count the residues as written; N and C are the ends. Square brackets hold non-standard residues; d marks the D form. Peptide text beside a SMILES is read from it. Nle = CCCC[C@H](N)C(=O)O A value given as a limit tells only on which side of the number the result lay.

Sequence of Rat whole blood (P15384 whole entry): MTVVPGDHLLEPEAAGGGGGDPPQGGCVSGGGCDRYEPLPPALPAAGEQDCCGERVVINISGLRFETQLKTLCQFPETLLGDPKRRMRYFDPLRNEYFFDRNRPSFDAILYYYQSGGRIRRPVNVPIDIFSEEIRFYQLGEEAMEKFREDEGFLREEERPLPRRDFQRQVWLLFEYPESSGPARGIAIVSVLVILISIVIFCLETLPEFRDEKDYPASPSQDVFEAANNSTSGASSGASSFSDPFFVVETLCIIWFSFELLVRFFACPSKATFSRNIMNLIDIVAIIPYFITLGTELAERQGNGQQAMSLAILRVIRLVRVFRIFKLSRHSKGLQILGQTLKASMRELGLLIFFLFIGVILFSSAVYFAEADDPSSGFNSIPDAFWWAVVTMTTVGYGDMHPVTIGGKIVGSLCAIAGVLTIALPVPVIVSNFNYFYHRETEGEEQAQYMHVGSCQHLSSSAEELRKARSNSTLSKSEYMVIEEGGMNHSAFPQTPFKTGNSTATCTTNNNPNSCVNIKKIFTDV
T2 sequence (P22001 whole entry): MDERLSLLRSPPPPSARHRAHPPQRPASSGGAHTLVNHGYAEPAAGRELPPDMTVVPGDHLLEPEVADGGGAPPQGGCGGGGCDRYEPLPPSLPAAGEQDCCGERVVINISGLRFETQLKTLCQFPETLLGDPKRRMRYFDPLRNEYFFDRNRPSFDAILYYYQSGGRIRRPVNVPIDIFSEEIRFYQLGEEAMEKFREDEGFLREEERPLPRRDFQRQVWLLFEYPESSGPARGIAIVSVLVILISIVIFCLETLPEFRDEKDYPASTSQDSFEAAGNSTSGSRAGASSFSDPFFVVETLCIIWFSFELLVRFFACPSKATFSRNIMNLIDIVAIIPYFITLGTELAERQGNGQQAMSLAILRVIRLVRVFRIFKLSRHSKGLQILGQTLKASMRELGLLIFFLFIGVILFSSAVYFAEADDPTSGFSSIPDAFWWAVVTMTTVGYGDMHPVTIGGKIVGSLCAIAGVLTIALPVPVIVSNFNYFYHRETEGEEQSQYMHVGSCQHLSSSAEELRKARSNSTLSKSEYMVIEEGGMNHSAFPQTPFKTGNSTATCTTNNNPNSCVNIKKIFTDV
T1 sequence (P22001 whole entry): as above

Broadly, the IC50 is the concentration that inhibits the measured activity by half. Consider `CC[C@H](C)[C@@H]1NC(=O)[C@H](C)NC(=O)[C@H](CCCCN)NC(=O)[C@H](Cc2ccc(O)cc2)NC(=O)[C@@H]2CSSC[C@@H](C(=O)N[C@@H](Cc3ccc(O)cc3)C(=O)N3CCC[C@H]3C(=O)N[C@@H](CCCNC(=N)N)C(N)=O)NC(=O)[C@H](CCCCN)NC(=O)[C@@H]3CSSC[C@H](NC(=O)[C@H](CCC(=O)O)NC(=O)[C@H](C(C)C)NC(=O)[C@H](CO)NC(=O)[C@H](C)NC(=O)[C@H](CO)NC(=O)[C@@H](NC(=O)[C@H](CCCNC(=N)N)NC(=O)[C@H](CCSC)NC(=O)[C@H](CC(=O)O)NC(=O)[C@H](CCSC)NC(=O)[C@@H](N)CC(N)=O)CSSC[C@H](NC(=O)[C@H](CCCCN)NC(=O)CNC(=O)[C@H](Cc4ccccc4)NC(=O)[C@H]([C@@H](C)CC)NC(=O)[C@H](CO)NC(=O)CNC1=O)C(=O)N[C@@H](CCSC)C(=O)N[C@@H](CC(N)=O)C(=O)N[C@@H](CCCCN)C(=O)N[C@@H](CCCCN)C(=O)N3)C(=O)N[C@@H](CCCCN)C(=O)N[C@@H](CCC(N)=O)C(=O)N[C@@H](CCCCN)C(=O)N2` [Compound 50] (H-NMDMRCSASVECKQKCYKAIGSIFGKCMNKKCKCYPR-NH2; disulfide 6-27, 12-32, 16-34), for which the 50% inhibitory concentration (IC50) came to 0.27 nM in test [1] and 0.16 nM in test [2].
Consider `CCCC[C@@H]1NC(=O)[C@@H]2CSSC[C@H](NC(=O)[C@H](CCCNC(=N)N)NC(=O)[C@H](CCCC)NC(=O)[C@H](CC(=O)O)NC(=O)[C@H](CCCC)NC(=O)[C@@H](N)CO)C(=O)N[C@@H](CO)C(=O)N[C@@H](C)C(=O)N[C@@H](CO)C(=O)N[C@@H](C(C)C)C(=O)N[C@@H](CCC(=O)O)C(=O)N[C@H]3CSSC[C@H](NC(=O)[C@H](CCCCN)NC(=O)[C@H](CCCCN)NC(=O)[C@H](CC(N)=O)NC1=O)C(=O)N[C@@H](CCCCN)C(=O)N[C@H](C(=O)N[C@@H](Cc1ccc(O)cc1)C(=O)N1CCC[C@H]1C(=O)N[C@@H](CCCNC(=N)N)C(N)=O)CSSC[C@H](NC(=O)[C@H](CCCCN)NC(=O)[C@H](CCC(N)=O)NC(=O)[C@H](CCCCN)NC3=O)C(=O)N[C@@H](CC(C)C)C(=O)N[C@@H](CCCCN)C(=O)N[C@@H](C)C(=O)N[C@@H]([C@@H](C)CC)C(=O)NCC(=O)N[C@@H](CO)C(=O)N[C@@H]([C@@H](C)CC)C(=O)N[C@@H](Cc1ccccc1)C(=O)NCC(=O)N[C@@H](CCCCN)C(=O)N2` [Compound 66] (H-S[Nle]D[Nle]RCSASVECKQKCLKAIGSIFGKC[Nle]NKKCKCYPR-NH2; disulfide 6-27, 12-32, 16-34), for which the concentration for half-maximal inhibition (IC50) in test [1] was 0.18 nM; in test [3] it was at most 1 nM; in test [2] it was 0.12 nM.
In the same order, the values of `CCCC[C@@H]1NC(=O)[C@@H]2CSSC[C@H](NC(=O)[C@H](CCCNC(=N)N)NC(=O)[C@H](CCCC)NC(=O)[C@H](CC(=O)O)NC(=O)[C@H](CCCC)NC(=O)[C@@H](N)C(C)C)C(=O)N[C@@H](CO)C(=O)N[C@@H](C)C(=O)N[C@@H](CO)C(=O)N[C@@H](C(C)C)C(=O)N[C@@H](CCC(=O)O)C(=O)N[C@H]3CSSC[C@H](NC(=O)[C@H](CCCCN)NC(=O)[C@H](CCCCN)NC(=O)[C@H](CC(N)=O)NC1=O)C(=O)N[C@@H](CCCCN)C(=O)N[C@H](C(=O)N[C@@H](Cc1ccc(O)cc1)C(=O)N1CCC[C@H]1C(=O)N[C@@H](CCCNC(=N)N)C(N)=O)CSSC[C@H](NC(=O)[C@H](CCCCN)NC(=O)[C@H](CCC(N)=O)NC(=O)[C@H](CCCCN)NC3=O)C(=O)N[C@@H](CC(C)C)C(=O)N[C@@H](CCCCN)C(=O)N[C@@H](C)C(=O)N[C@@H]([C@@H](C)CC)C(=O)NCC(=O)N[C@@H](CO)C(=O)N[C@@H]([C@@H](C)CC)C(=O)N[C@@H](Cc1ccccc1)C(=O)NCC(=O)N[C@@H](CCCCN)C(=O)N2` [Compound 67] (H-V[Nle]D[Nle]RCSASVECKQKCLKAIGSIFGKC[Nle]NKKCKCYPR-NH2; disulfide 6-27, 12-32, 16-34) are 0.32 nM, at most 1 nM and 0.12 nM.
With `CC[C@H](C)[C@@H]1NC(=O)[C@H](C)NC(=O)[C@H](CCCCN)NC(=O)[C@H](CC(C)C)NC(=O)[C@@H]2CSSC[C@@H](C(=O)N[C@@H](Cc3ccc(O)cc3)C(=O)N3CCC[C@H]3C(=O)N[C@@H](CCCNC(=N)N)C(N)=O)NC(=O)[C@H](CCCCN)NC(=O)[C@@H]3CSSC[C@H](NC(=O)[C@H](CCC(=O)O)NC(=O)[C@H](C(C)C)NC(=O)[C@H](CO)NC(=O)[C@H](C)NC(=O)[C@H](CO)NC(=O)[C@@H](NC(=O)[C@H](CCCNC(=N)N)NC(=O)[C@H](CCSC)NC(=O)[C@H](CC(=O)O)NC(=O)[C@H](CCSC)NC(=O)[C@@H](N)CC(N)=O)CSSC[C@H](NC(=O)[C@H](CCCCN)NC(=O)CNC(=O)[C@H](Cc4ccccc4)NC(=O)[C@H]([C@@H](C)CC)NC(=O)[C@H](CO)NC(=O)CNC1=O)C(=O)N[C@@H](CCSC)C(=O)N[C@@H](CC(N)=O)C(=O)N[C@@H](CCCCN)C(=O)N[C@@H](CCCCN)C(=O)N3)C(=O)N[C@@H](CCCCN)C(=O)N[C@@H](CC(C)C)C(=O)N[C@@H](CCCCN)C(=O)N2` [Compound 32] (H-NMDMRCSASVECKLKCLKAIGSIFGKCMNKKCKCYPR-NH2; disulfide 6-27, 12-32, 16-34), the values for the IC50 in test [1], in test [3] and in test [2] were 0.38 nM, at most 1 nM and 0.12 nM, respectively.
Regarding `CC[C@H](C)[C@@H]1NC(=O)[C@H](C)NC(=O)[C@H](CCCCN)NC(=O)[C@H](CCCNC(=N)N)NC(=O)[C@@H]2CSSC[C@@H](C(=O)N[C@@H](Cc3ccc(O)cc3)C(=O)N3CCC[C@H]3C(=O)N[C@@H](CCCNC(=N)N)C(N)=O)NC(=O)[C@H](CCCCN)NC(=O)[C@@H]3CSSC[C@H](NC(=O)[C@H](CCC(=O)O)NC(=O)[C@H](C(C)C)NC(=O)[C@H](CO)NC(=O)[C@H](C)NC(=O)[C@H](CO)NC(=O)[C@@H](NC(=O)[C@H](CCCNC(=N)N)NC(=O)[C@H](CCSC)NC(=O)[C@H](CC(=O)O)NC(=O)[C@H](CCSC)NC(=O)[C@@H](N)CC(N)=O)CSSC[C@H](NC(=O)[C@H](CCCCN)NC(=O)CNC(=O)[C@H](Cc4ccccc4)NC(=O)[C@H]([C@@H](C)CC)NC(=O)[C@H](CO)NC(=O)CNC1=O)C(=O)N[C@@H](CCSC)C(=O)N[C@@H](CC(N)=O)C(=O)N[C@@H](CCCCN)C(=O)N[C@@H](CCCCN)C(=O)N3)C(=O)N[C@@H](CCCCN)C(=O)N[C@@H](CCC(N)=O)C(=O)N[C@@H](CCCCN)C(=O)N2` [Compound 51] (H-NMDMRCSASVECKQKCRKAIGSIFGKCMNKKCKCYPR-NH2; disulfide 6-27, 12-32, 16-34), the IC50 in test [1] was found to be 0.25 nM; in test [2], 0.11 nM.
With `CC[C@H](C)[C@@H]1NC(=O)[C@H](Cc2ccc(O)cc2)NC(=O)[C@H](CCCCN)NC(=O)[C@H](CC(C)C)NC(=O)[C@@H]2CSSC[C@@H](C(=O)N[C@@H](Cc3ccc(O)cc3)C(=O)N3CCC[C@H]3C(=O)N[C@@H](CCCNC(=N)N)C(N)=O)NC(=O)[C@H](CCCCN)NC(=O)[C@@H]3CSSC[C@H](NC(=O)[C@H](CCC(=O)O)NC(=O)[C@H](C(C)C)NC(=O)[C@H](CO)NC(=O)[C@H](C)NC(=O)[C@H](CO)NC(=O)[C@@H](NC(=O)[C@H](CCCNC(=N)N)NC(=O)[C@H](CCSC)NC(=O)[C@H](CC(=O)O)NC(=O)[C@H](CCSC)NC(=O)[C@@H](N)CC(N)=O)CSSC[C@H](NC(=O)[C@H](CCCCN)NC(=O)CNC(=O)[C@H](Cc4ccccc4)NC(=O)[C@H]([C@@H](C)CC)NC(=O)[C@H](CO)NC(=O)CNC1=O)C(=O)N[C@@H](CCSC)C(=O)N[C@@H](CC(N)=O)C(=O)N[C@@H](CCCCN)C(=O)N[C@@H](CCCCN)C(=O)N3)C(=O)N[C@@H](CCCCN)C(=O)N[C@@H](CCC(N)=O)C(=O)N[C@@H](CCCCN)C(=O)N2` [Compound 55] (H-NMDMRCSASVECKQKCLKYIGSIFGKCMNKKCKCYPR-NH2; disulfide 6-27, 12-32, 16-34), the half-maximal inhibitory concentration (IC50) in test [1] and in test [2] was 0.12 nM each time.
For `CCCC[C@@H]1NC(=O)[C@@H]2CSSC[C@H](NC(=O)[C@H](CCCNC(=N)N)NC(=O)[C@H](CCCC)NC(=O)[C@H](CC(=O)O)NC(=O)[C@H](CCCC)NC(=O)[C@@H](N)Cc3c[nH]cn3)C(=O)N[C@@H](CO)C(=O)N[C@@H](C)C(=O)N[C@@H](CO)C(=O)N[C@@H](C(C)C)C(=O)N[C@@H](CCC(=O)O)C(=O)N[C@H]3CSSC[C@H](NC(=O)[C@H](CCCCN)NC(=O)[C@H](CCCCN)NC(=O)[C@H](CC(N)=O)NC1=O)C(=O)N[C@@H](CCCCN)C(=O)N[C@H](C(=O)N[C@@H](Cc1ccc(O)cc1)C(=O)N1CCC[C@H]1C(=O)N[C@@H](CCCNC(=N)N)C(N)=O)CSSC[C@H](NC(=O)[C@H](CCCCN)NC(=O)[C@H](CCC(N)=O)NC(=O)[C@H](CCCCN)NC3=O)C(=O)N[C@@H](CC(C)C)C(=O)N[C@@H](CCCCN)C(=O)N[C@@H](C)C(=O)N[C@@H]([C@@H](C)CC)C(=O)NCC(=O)N[C@@H](CO)C(=O)N[C@@H]([C@@H](C)CC)C(=O)N[C@@H](Cc1ccccc1)C(=O)NCC(=O)N[C@@H](CCCCN)C(=O)N2` [Compound 64] (H-H[Nle]D[Nle]RCSASVECKQKCLKAIGSIFGKC[Nle]NKKCKCYPR-NH2; disulfide 6-27, 12-32, 16-34), the figures for the half-maximal inhibitory concentration (IC50) in test [1] and in test [2] were 0.25 nM and 0.12 nM, respectively.
